Reference: article PMC4929455 (2016)
Where a SMILES comes first, the peptide text is derived from it.

What was measured:
[1] = tested on: T:A (DNA, duplex) TCACCAGTCGTA/TACGACTGGTGA; assay: CD forward titration, ICD at 500 nm; details: 100 mM NaCl; 10 mM sodium phosphate pH 7.0, 1 mM EDTA, 15 °C; apparent; non-specific binding
[2] = tested on: T:THF (DNA, mismatch bulge abasic, tetrahydrofuran (THF) abasic analogue at 6 of strand 1, opposite T) TCACCNGTCGTA/TACGACTGGTGA; assay: CD forward titration, ICD at 500 nm; details: 100 mM NaCl, 10 mM sodium phosphate pH 7.0, 1 mM EDTA, 15 °C, apparent
[3] = tested on: T:AP (DNA, mismatch bulge abasic, natural apurinic/apyrimidinic site (from dU by UDG) at 6 of strand 1, opposite T) TCACCNGTCGTA/TACGACTGGTGA; assay: CD forward titration, ICD at 500 nm; details: 100 mM NaCl; 10 mM sodium phosphate pH 7.0, 1 mM EDTA, 15 °C; apparent; corrected for non-specific interactions (uncorrected 44 ± 5)
[4] = tested on: AP site-containing oligodeoxynucleotide (32P-labeled) (DNA, single strand, natural AP site (from dU by UDG) at 4) TCANCGT; assay: cyanoborohydride trapping, denaturing gel shift; details: 100 mM Hepes-K pH 7.3, 50 mM NaB(CN)H3, 18 °C overnight, covalent
[5] = tested on: AP site-containing oligodeoxynucleotide (unlabeled) (DNA, single strand, natural AP site (from dU by UDG) at 4) TCANCGT; assay: ESI-MS / CID of reduced covalent complex; details: 100 mM Hepes-K pH 7.3, 50 mM NaB(CN)H3, 37 °C overnight
[6] = tested on: T:A (DNA, duplex) TCACCAGTCGTA/TACGACTGGTGA; assay: UV melting at 260 nm; details: 100 mM NaCl; 10 mM sodium phosphate pH 7.0, 1 mM EDTA; 5 μM DNA, 5 μM C1
[7] = tested on: T:THF (DNA, mismatch bulge abasic, tetrahydrofuran (THF) abasic analogue at 6 of strand 1, opposite T) TCACCNGTCGTA/TACGACTGGTGA; assay: UV melting at 260 nm; details: 100 mM NaCl; 10 mM sodium phosphate pH 7.0, 1 mM EDTA; 5 μM DNA, 5 μM C1
[8] = tested on: dU-containing oligodeoxynucleotide 5'-TCA(dU)CGT-3' (DNA, single strand, 2'-deoxyuridine at 4) TCAUCGT; assay: cyanoborohydride trapping, denaturing gel shift; details: 100 mM Hepes-K pH 7.3, 50 mM NaB(CN)H3, 18 °C overnight; 10 μM C1; covalent trapping only

Row | KD [1] | KD ([2]; corrected for non-specific interactions (uncorrected 35 ± 1)) | KD [3] | binding ([4]; 2 mM KWKK) | binding [5] | KD ([2]; corrected for non-specific interactions (uncorrected 29 ± 1)) | ΔTm [6] | ΔTm [7] | binding ([4]; 10 μM C1, ~80% trapped) | binding [8] | SMILES
1 | 69 ± 14 µM | 28 ± 1 µM | 28 ± 2 µM | – | – | – | – | – | – | – | COc1cc[nH]c1/C=C1\C(=O)Nc2ccc(F)c(C#CC3(O)CCNCC3)c21
2 | – | – | – | yes | – | – | – | – | – | – | NCCCC[C@H](NC(=O)[C@H](CCCCN)NC(=O)[C@H](Cc1c[nH]c2ccccc12)NC(=O)[C@@H](N)CCCCN)C(=O)O (H-KWKK-OH)
3 | 64 ± 3 µM | – | – | – | yes | 22 ± 1 µM | 1 °C | 6.3 °C | yes | no | CNCC#Cc1c(F)ccc2c1/C(=C/c1[nH]ccc1OC)C(=O)N2
